# Measurements taken from patent US7488738B2, “Aminophenoxyacetic acid derivatives and pharmaceutical composition containing thereof” (Asubio Pharma Co., Ltd., priority 1998, dated 2009).
# What was measured:
# cells of cerebral cortex = assay: Cytoprotective effect against glutamate induced cell death (MTT); assay type: cell-based, rats of Wister strain; conditions: compound 1 μM added 24 h before 1 mM glutamate, fetal rat cerebral cortex cells, control group = 100%
# calbindin D28Kd = assay: Calbindin D28Kd inducing effect (western blot); assay type: cell-based, rats of Wister strain; conditions: fetal rat cerebral cortex cells, none-treated control = 100
# Experimental: Biological Test 2: Calbindin D28Kd Inducing Effect
# In accordance with the method of M. P. Mattoson [M. P. Mattoson, Brain Res. Rev., 13, 179 (1988)], brain of 18-days fetus rats of Wister strain were taken out. Then, cells of cerebral cortex (5,500 cells/m^2) were seeded on poly-L-lysine coated 6 wells plate (Falcon) (3.5 mm, Sumilon) and incubated for 7 days.
# Test compounds were added on culture day 5, and after 7 days of incubation, the protein was extracted with homogenized buffer-solution [containing 20 mM of Tris-HCl (pH=7.4), 1 mM of EDTA, and 0.1 mM of phenylmethylsulfonyl fluoride].
# The effect of the test compounds was determined by the western blot technique using polyclonal anti calbindine D28K (Swant Co., Ltd.) as antibody.
# In the table, the amount of induced calbindine D28Kd of the control group (none-treated group) was indicated as 100 percents.
# [1] = test system: rats of slc:Wister strain; assay: Cerebral edema suppressing effect (brain injury by metal screw); assay type: in vivo; conditions: rat, water content of injured hemisphere 6 days after operation
# Experimental: Biological Test 3: Cerebral Edema Suppressing Effect 8-week-old rats of slc:Wister strain were used. Rats were anesthetized by intraperitoneal administration of 50 mg/kg of Nembutal (Trade Name), and then, fixed on brain fixactor. The sterile metal screw (3.75 mm in length/1.0 mm in diameter/0.75 mm in length of screw thread) was plugged in the 1.5 mm right and 0.8 mm rear side of the bregma to press frontparietal cortex organ to cause brain injury. 6 days after the operation, the whole brain was taken out and right cerebral hemisphere (injured side) was isolated. After measurement of the wet weight of the cerebral hemisphere, it was dried at 110° C. for 24 hours on aluminum foil. The dry weight of the cerebral hemisphere was measured, and the water content was calculated by using the following formula: Water content (%)=[(wet weight of hemisphere−dry weight of hemisphere)/wet weight of hemisphere]×100 The test compounds were intravenously administered just after the operation via tail vein of the rats.
smiles,measurement,setting,value
"Cc1c(C)c(NCC(=O)N(C)C2CCN(CCc3ccccc3)CC2)c(C)c(C)c1N [Compound 40, 2-(4-Amino-2,3,5,6-tetramethylanilino)-N-methyl-N-[1-(2-phenethyl)-4-piperidinyl]acetamide]",Survival Rate (%) (Compound: 1 μM),cells of cerebral cortex,108%
same,Amount of induced Calbindine D28Kd (% vs. control) (Compound: 1 μM),calbindin D28Kd,150 % vs. control
same,Cerebral edema suppressing rate (%),[1]; 1 mg/kg intravenously just after operation,31.1%
same,Cerebral edema suppressing rate (%),[1]; 3 mg/kg intravenously just after operation,20.5%
